From patent publication US10364263B2, “Cyclic phosphates and cyclic phosphoramidates for the treatment of neurologic disorders” (Retrophin, Inc., priority 2015, dated 2019)
Where two headings read alike, the source gives them in different places.

Experiments:
[1] = tested on: PANK2 silenced human neuroblastoma IMR32 cells (PANK2−/−); test: Coenzyme A assay in PANK2 silenced cells (LC-MS quantification of free CoA); format: cell-based; conditions: compound added twice (24 h + 24 h), relative to 0.1% DMSO controls
Method in brief: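 Free intracellular CoA was measured by positive-mode LC-MS/MS of 20% TFA extracts, taking 2 μl per 10^6 cells as intracellular volume. Cells were IMR32 with stable lentiviral PANK2 knockdown, dosed twice 24 h apart (48 h total, 0.1% DMSO). Output is fold increase over vehicle.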

[2] = Stability in human plasma; format: in vitro ADME; conditions: 37° C.
Protocol: Compounds and positive control samples were dissolved in 100% DMSO at 3 mM. To investigate the stability of the test compounds in plasma, samples were made by diluting test compounds into plasma from the stock solutions to obtain a test compound concentration of 3 μM (0.1% DMSO). Before addition of a test compound, 990 μl of plasma were preincubated at 37° C. for 5 min in eppendorf. After addition of a test compound, 70 μl for each time point were transferred to a 96-deepwell plate, previously warmed at 37° C. in a DUBNOFF water bath. Each compound was tested at five time points, in duplicate (10, 20, 30, 40 and 60 min). At each time point, an aliquot of 50 μl was taken and transferred to a new 96-deepwell plate, and the reaction was stopped with 200 μl of 100% acetonitrile containing 0.1% formic acid and the appropriate internal standard. Then samples were centrifuged at 1100×g for 30 min at +4° C. and supernatants were transferred to a new 96-deepwell plate. Samples were evaporated under N2 and reconstituted in H2O/ACN 0.1% Formic Acid (98:2). Analysis was performed without a calibration curve (Acquity UPLC-Waters; SciexAPI4000). Time 0 was obtained by adding acetonitrile before addition of the test compound.

[3] = human, plasma, Diastereoisomer A (upfield shift in 31P NMR), read-out: t1/2, Human Plasma, Diastereoisomer A (converted)
[4] = human, plasma, Diastereoisomer B, read-out: t1/2, Human Plasma, Diastereoisomer B (converted)

Compound	PANK2−/− CoA (Fold Increase): fold increase in Coenzyme A (CoA) levels relative to controls [1] [Fold Increase]	half-life at 3 µM [2, 3] [min]	also measured
COC(=O)CCNC(=O)[C@@H]1O[P@@](=O)(N[C@@H](C)C(=O)OCCc2ccccn2)OCC1(C)C [compound 35, methyl 3-((2R,4R)-5,5-dimethyl-2-oxido-2-(((S)-1-oxo-1-(2-(pyridin-2-yl)ethoxy)propan-2-yl)amino)-1,3,2-dioxaphosphinane-4-carboxamido)propanoate]	2.23	> 60	half-life at 3 µM [2, 4]: 53.4 min
C[C@H](NP1(=O)OCC(C)(C)[C@H](C(=O)NCCC(=O)OCc2ccncc2)O1)C(=O)OCCc1ccccc1 (stereo partly drawn) [compound 38, phenethyl ((4R)-5,5-dimethyl-2-oxido-4-((3-oxo-3-(pyridin-4-ylmethoxy)propyl)carbamoyl)-1,3,2-dioxaphosphinan-2-yl)-L-alaninate]	2.76	> 60	half-life at 3 µM [2, 4]: > 60 min
COC(=O)CCNC(=O)[C@@H]1OP(=O)(N[C@@H](C)C(=O)OCCc2ccccc2)OCC1(C)C (stereo in doubt) [compound 48, methyl 3-((2R,4R)-5,5-dimethyl-2-oxido-2-(((S)-1-oxo-1-phenethoxypropan-2-yl)amino)-1,3,2-dioxaphosphinane-4-carboxamido)propanoate]	2.16	> 60	
COC(=O)CCNC(=O)[C@@H]1OP(=O)(N[C@@H](C)C(=O)OC2CCOC2)OCC1(C)C (stereo partly drawn) [compound 34, methyl 3-((4R)-5,5-dimethyl-2-oxido-2-(((2S)-1-oxo-1-((tetrahydrofuran-3-yl)oxy)propan-2-yl)amino)-1,3,2-dioxaphosphinane-4-carboxamido)propanoate]	1.3		half-life at 3 µM ([2]; Diastereoisomer A (upfield shift in 31P NMR), read-out: t1/2, Human Plasma, Diastereoisomer A (converted)): > 60 min; t1/2, Human Plasma, Diastereoisomer B ([2]; Diastereoisomer B, 3 μM): >1 h
C[C@H](NP1(=O)OCC(C)(C)[C@H](C(=O)NCCC(=O)OC[C@H]2CCC(=O)N2)O1)C(=O)OCCc1ccccc1 (stereo partly drawn) [compound 47, ((R)-5-oxopyrrolidin-2-yl)methyl 3-((4R)-5,5-dimethyl-2-oxido-2-(((S)-1-oxo-1-phenethoxypropan-2-yl)amino)-1,3,2-dioxaphosphinane-4-carboxamido)propanoate]	1.38	> 60	
COC(=O)CCNC(=O)[C@@H]1O[P@](=O)(N[C@H](C(=O)OCCc2ccccc2)C(C)C)OCC1(C)C [compound 45, phenethyl ((2S,4R)-4-((3-methoxy-3-oxopropyl)carbamoyl)-5,5-dimethyl-2-oxido-1,3,2-dioxaphosphinan-2-yl)-L-valinate]	1.3	> 60	
COC(=O)CCNC(=O)[C@@H]1OP(=O)(N[C@@H](Cc2cccnc2)C(=O)OCCc2ccccc2)OCC1(C)C (stereo partly drawn) [compound 36, phenethyl (2S)-2-(((4R)-4-((3-methoxy-3-oxopropyl)carbamoyl)-5,5-dimethyl-2-oxido-1,3,2-dioxaphosphinan-2-yl)amino)-3-(pyridin-3-yl)propanoate]	2.44	> 60	half-life at 3 µM [2, 4]: > 60 min
COC(=O)CCNC(=O)[C@@H]1OP(=O)(OCOC(=O)c2cc(C(C)(C)C)nn2C)OCC1(C)C (stereo partly drawn) [2-144, (((4R)-4-((3-methoxy-3-oxopropyl)carbamoyl)-5,5-dimethyl-2-oxido-1,3,2-dioxaphosphinan-2-yl)oxy)methyl 3-(tert-butyl)-1-methyl-1H-pyrazole-5-carboxylate]	77.8		
COC(=O)CCNC(=O)[C@@H]1O[P@@](=O)(OCOC(=O)c2scnc2C(C)(C)C)OCC1(C)C [2-192, (((2S,4R)-4-((3-methoxy-3-oxopropyl)carbamoyl)-5,5-dimethyl-2-oxido-1,3,2-dioxaphosphinan-2-yl)oxy)methyl 4-(tert-butyl)thiazole-5-carboxylate]	2.52		
CC(C)(C)OC(=O)CCNC(=O)[C@@H]1O[P@](=O)(OCc2ccccc2)OCC1(C)C [Compound No. 63, tert-butyl 3-((4R)-2-(benzyloxy)-5,5-dimethyl-2-oxido-1,3,2-dioxaphosphinane-4-carboxamido)propanoate]	2.24		
CCOC(=O)[C@H](CCc1ccccc1)NP1(=O)OCC(C)(C)[C@H](C(=O)NCCC(=O)OC)O1 (stereo partly drawn) [compound 6, ethyl (2S)-2-[[(4R)-4-[(3-methoxy-3-oxo-propyl)carbamoyl]-5,5-dimethyl-2-oxo-1,3,2-dioxaphosphinan-2-yl]amino]-4-phenyl-butanoate]	1.11		
COC(=O)CCNC(=O)[C@@H]1O[P@@](=O)(OCOC(=O)N[C@@H](CSC(=O)C(C)(C)C)C(=O)OCc2ccccc2)OCC1(C)C [2-164, Benzyl N-(((((2S,4R)-4-((3-methoxy-3-oxopropyl)carbamoyl)-5,5-dimethyl-2-oxido-1,3,2-dioxaphosphinan-2-yl)oxy)methoxy)carbonyl)-S-pivaloyl-L-cysteinate]	101.86		
COC(=O)CCNC(=O)[C@@H]1OP(=O)(Oc2ccc(C(F)(F)F)nc2)OCC1(C)C (stereo partly drawn) [2-122, methyl 3-((4R)-5,5-dimethyl-2-oxido-2-((6-(trifluoromethyl)pyridin-3-yl)oxy)-1,3,2-dioxaphosphinane-4-carboxamido)propanoate]	1.21		
COC(=O)CCNC(=O)[C@@H]1OP(=O)(OCOC(=O)NC(C)(C)COC(C)=O)OCC1(C)C (stereo partly drawn) [2-152, methyl 3-((4R)-2-((((l-acetoxy-2-methylpropan-2-yl)carbamoyl)oxy)methoxy)-5,5-dimethyl-2-oxido-1,3,2-dioxaphosphinane-4-carboxamido)propanoate]	1.24		
COC(=O)CCNC(=O)[C@@H]1O[P@@](=O)(OCOC(=O)c2cc(C)nn2C)OCC1(C)C [2-182, (((2S,4R)-4-((3-methoxy-3-oxopropyl)carbamoyl)-5,5-dimethyl-2-oxido-1,3,2-dioxaphosphinan-2-yl)oxy)methyl 1,3-dimethyl-lH-pyrazole-5-carboxylate]	24.98		
COC(=O)CCNC(=O)[C@@H]1O[P@](=O)(OCOC(=O)c2cc(C)nn2C)OCC1(C)C [2-190, (((2R,4R)-4-((3-methoxy-3-oxopropyl)carbamoyl)-5,5-dimethyl-2-oxido-1,3,2-dioxaphosphinan-2-yl)oxy)methyl 1,3-dimethyl-1H-pyrazole-5-carboxylate]	52.24		
COC(=O)CCNC(=O)[C@@H]1O[P@](=O)(Oc2ccc(F)cc2)OCC1(C)C [2-179, methyl 3-((2R,4R)-2-(4-fluorophenoxy)-5,5-dimethyl-2-oxido-1,3,2-dioxaphosphinane-4-carboxamido)propanoate]	87.22		
COC(=O)CCNC(=O)[C@@H]1O[P@@](=O)(OCOC(=O)c2cc(C(C)(C)C)n[nH]2)OCC1(C)C [2-186, (((2S,4R)-4-((3-methoxy-3-oxopropyl)carbamoyl)-5,5-dimethyl-2-oxido-1,3,2-dioxaphosphuian-2-yl)oxy)methyl 3-(tert-butyl)-1H-pyrazole-5-carboxylate]	101.14		
COC(=O)CCNC(=O)[C@@H]1O[P@@](=O)(Oc2ccc(S(F)(F)(F)(F)F)cc2)OCC1(C)C [2-124, methyl 3-((2S,4R)-5,5-dimethyl-2-oxido-2-(4-(pentafluoro-16-sulfanyl)phenoxy)-1,3,2-dioxaphosphinane-4-carboxamido)propanoate]	1.12		
COC(=O)CCNC(=O)[C@@H]1OP(=O)(OCOC(=O)N[C@@H](CSC(=O)C(C)(C)C)C(=O)OCc2ccccc2)OCC1(C)C (stereo partly drawn) [2-174, benzyl N-(((((4R)-4-((3-methoxy-3-oxopropyl)carbamoyl)-5,5-dimethyl-2-oxido-1,3,2-dioxaphosphinan-2-yl)oxy)methoxy)carbonyl)-S-pivaloyl-L-cysteinate]	93.99		
